Test results from ChEMBL document CHEMBL5729699, “Polypeptide compound, pharmaceutical composition, preparation method and application thereof” (2023).

How the values were obtained:
Cytochrome P450 1A2 = biological target: T1, Cytochrome P450 1A2 (Homo sapiens, UniProt P05177); experiment: (§1) Inhibition of Cytochrome P450 Oxidase: The human liver microsomes (0.253 mg/mL protein) containing cytochrome P450, test compounds (0.05-50 μM), CYPs substrates (10 μM […], 5 μM diclofenac, 30 μM mephenytoin, 5 μM dextromethorphan hydrobromide, 2 μM midazolam), 1.0 mM NADP were incubated at 37° C. for 10 minutes. Naflavone, sulfafenpyrazole, N-3-benzylnivan, quinidine, and ketoconazole were used as reference inhibitors.
T1 sequence (P05177 whole entry): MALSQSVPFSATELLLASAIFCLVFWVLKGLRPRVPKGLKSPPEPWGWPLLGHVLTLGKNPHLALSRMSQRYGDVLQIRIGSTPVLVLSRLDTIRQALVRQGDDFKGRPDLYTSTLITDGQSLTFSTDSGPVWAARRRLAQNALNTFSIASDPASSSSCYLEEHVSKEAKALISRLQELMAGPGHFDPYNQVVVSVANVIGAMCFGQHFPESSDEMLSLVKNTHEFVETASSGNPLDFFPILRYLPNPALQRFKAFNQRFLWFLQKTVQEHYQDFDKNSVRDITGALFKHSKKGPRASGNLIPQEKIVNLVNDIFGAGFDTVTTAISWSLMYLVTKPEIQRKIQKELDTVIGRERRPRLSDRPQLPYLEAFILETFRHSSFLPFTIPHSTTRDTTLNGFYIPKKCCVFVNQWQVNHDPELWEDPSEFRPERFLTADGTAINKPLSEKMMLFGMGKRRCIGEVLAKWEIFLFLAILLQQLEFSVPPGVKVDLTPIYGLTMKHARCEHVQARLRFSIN

Cytochrome P450 2C19 = Cytochrome P450 2C19 (Homo sapiens, UniProt P33261); experiment: as §1
Cytochrome P450 2C9 = Cytochrome P450 2C9 (Homo sapiens, UniProt P11712); experiment: as §1
Cytochrome P450 2D6 = Cytochrome P450 2D6 (Homo sapiens, UniProt P10635); experiment: as §1
Cytochrome P450 3A4 = Cytochrome P450 3A4 (Homo sapiens, UniProt P08684); experiment: as §1
[1] = biological target: Kappa-type opioid receptor (Homo sapiens, UniProt P41145); experiment: Agonistic activity of the kappa-opioid receptors: Forskolin can stimulate the release of cAMP from HEK293 cells with high expression of human κ (or μ, or δ)-opioid receptors. […] The efficacy of the compounds of the invention as κ-opioid receptor agonists was determined by measuring the ability of the compounds of Examples to inhibit adenylate cyclase activity.Cell culture: The HEK293 cell line highly expressing human κ (or μ, or δ)-opioid receptor were cultured in DMEM medium containing 10% FBS.Stimulation: the test compound was 4-fold diluted in a gradient manner to obtain 10 concentrations, and 50 nl of each was transferred to a 384-well plate, and then 10 nl Forskolin was added; the cells were digested, re-suspended, and counted; and then 10 μl of cell suspension (5×10^5 cell/mL) was added, and the cells were mixed gently, and incubated at 23° C. for 60 minutes.Detection: cAMP Assay Kit (Cisbio) was used, cAMPD2 and Anti-cAMP conjugate were added, and the resultant mixture was incubated for 1 h at room temperature. The plate was read using envision (Perkin Elmer) and EC50 was obtained by means of fitting with a four-parameter equation.; format: cell-based
Kappa-type opioid receptor, sequence (P41145 whole entry): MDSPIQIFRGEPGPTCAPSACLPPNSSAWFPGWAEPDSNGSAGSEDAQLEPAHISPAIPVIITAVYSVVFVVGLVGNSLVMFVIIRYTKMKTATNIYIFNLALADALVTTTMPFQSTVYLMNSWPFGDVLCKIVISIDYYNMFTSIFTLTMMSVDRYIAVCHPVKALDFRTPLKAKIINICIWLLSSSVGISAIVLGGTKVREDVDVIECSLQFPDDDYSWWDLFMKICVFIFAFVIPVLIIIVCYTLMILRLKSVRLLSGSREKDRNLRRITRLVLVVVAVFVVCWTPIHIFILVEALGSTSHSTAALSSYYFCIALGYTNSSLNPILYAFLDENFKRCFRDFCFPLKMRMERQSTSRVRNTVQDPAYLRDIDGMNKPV

Cytochrome P450 2C19, sequence (P33261 whole entry): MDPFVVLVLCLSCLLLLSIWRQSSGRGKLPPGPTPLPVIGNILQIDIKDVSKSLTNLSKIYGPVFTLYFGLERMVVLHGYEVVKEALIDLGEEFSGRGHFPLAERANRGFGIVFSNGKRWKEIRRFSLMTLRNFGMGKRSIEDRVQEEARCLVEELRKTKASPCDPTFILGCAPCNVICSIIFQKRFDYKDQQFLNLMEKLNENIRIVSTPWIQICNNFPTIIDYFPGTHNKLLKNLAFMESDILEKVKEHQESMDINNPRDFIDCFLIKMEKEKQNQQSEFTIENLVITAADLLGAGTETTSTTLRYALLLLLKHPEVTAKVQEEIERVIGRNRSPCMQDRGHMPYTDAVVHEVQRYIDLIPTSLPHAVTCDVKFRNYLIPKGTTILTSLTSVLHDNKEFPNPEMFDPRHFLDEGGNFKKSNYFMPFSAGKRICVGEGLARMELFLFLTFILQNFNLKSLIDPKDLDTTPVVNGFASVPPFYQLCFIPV
Cytochrome P450 2C9, sequence (P11712 whole entry): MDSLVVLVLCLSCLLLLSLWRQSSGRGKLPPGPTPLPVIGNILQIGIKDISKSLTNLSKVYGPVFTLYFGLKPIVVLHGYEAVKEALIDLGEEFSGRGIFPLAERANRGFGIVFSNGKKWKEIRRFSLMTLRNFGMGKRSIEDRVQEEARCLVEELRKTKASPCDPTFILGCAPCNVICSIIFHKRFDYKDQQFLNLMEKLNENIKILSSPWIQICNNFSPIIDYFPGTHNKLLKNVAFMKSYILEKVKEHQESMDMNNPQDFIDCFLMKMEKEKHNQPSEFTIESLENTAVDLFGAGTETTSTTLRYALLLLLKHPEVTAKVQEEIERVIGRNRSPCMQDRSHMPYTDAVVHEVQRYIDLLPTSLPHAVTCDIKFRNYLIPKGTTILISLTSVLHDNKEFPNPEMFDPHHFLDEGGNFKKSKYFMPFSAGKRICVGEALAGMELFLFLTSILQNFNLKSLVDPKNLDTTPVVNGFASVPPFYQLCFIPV
Cytochrome P450 3A4, sequence (P08684 whole entry): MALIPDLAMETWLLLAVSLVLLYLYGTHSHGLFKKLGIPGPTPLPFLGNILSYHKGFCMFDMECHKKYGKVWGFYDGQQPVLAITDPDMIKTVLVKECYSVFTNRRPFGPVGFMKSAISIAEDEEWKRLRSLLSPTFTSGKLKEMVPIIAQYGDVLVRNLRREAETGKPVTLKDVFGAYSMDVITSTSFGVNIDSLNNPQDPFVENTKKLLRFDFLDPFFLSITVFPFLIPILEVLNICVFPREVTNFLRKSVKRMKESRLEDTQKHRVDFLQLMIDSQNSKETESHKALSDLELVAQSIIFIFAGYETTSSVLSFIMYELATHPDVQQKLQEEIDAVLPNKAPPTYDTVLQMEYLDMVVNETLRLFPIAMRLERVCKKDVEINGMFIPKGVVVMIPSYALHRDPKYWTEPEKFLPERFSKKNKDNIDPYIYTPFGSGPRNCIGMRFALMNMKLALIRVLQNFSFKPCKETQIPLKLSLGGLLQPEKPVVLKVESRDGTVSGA
Cytochrome P450 2D6, sequence (P10635 whole entry): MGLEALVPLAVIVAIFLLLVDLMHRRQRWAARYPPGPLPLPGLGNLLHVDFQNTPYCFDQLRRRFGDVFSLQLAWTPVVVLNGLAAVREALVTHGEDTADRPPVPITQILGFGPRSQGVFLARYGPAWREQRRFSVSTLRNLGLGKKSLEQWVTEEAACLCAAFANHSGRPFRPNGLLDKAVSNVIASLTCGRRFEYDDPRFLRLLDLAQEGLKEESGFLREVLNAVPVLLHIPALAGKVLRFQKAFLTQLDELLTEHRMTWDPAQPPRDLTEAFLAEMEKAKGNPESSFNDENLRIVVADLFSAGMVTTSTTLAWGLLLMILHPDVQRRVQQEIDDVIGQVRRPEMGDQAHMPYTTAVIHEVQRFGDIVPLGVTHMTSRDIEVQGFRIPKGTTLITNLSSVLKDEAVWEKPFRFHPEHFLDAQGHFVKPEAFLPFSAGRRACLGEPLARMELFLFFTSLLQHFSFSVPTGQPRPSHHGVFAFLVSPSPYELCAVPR

Row | SMILES | IC50 (Cytochrome P450 1A2) | IC50 (Cytochrome P450 2C19) | IC50 (Cytochrome P450 2C9) | IC50 (Cytochrome P450 2D6) | IC50 (Cytochrome P450 3A4) | EC50 [1]
1 | CC(C)C[C@@H](NC(=O)[C@@H](Cc1ccccc1)NC(=O)[C@H](N)Cc1ccccc1)C(=O)N[C@H](CCCCN)C(=O)N1CC=C(B(O)O)C1 | > 50 µM | > 50 µM | > 50 µM | > 50 µM | > 50 µM | 
2 | CC(C)C[C@@H](NC(=O)[C@@H](Cc1ccccc1)NC(=O)[C@H](N)Cc1ccccc1)C(=O)N[C@H](CCCCN)C(=O)N1CCC(N)(B(O)O)CC1 | > 50 µM | > 50 µM | > 50 µM | > 50 µM | > 50 µM | 
3 | CC(C)C[C@@H](NC(=O)[C@@H](Cc1ccccc1)NC(=O)[C@H](N)Cc1ccccc1)C(=O)N[C@H](CCCCN)C(=O)N1CC[C@@H](B(O)O)C1 | > 50 µM | > 50 µM | > 50 µM | > 50 µM | > 50 µM | 
4 | CC(C)C[C@@H](NC(=O)[C@@H](Cc1ccccc1)NC(=O)[C@H](N)Cc1ccccc1)C(=O)N[C@H](CCCCN)C(=O)N1CCC[C@H]1B(O)O | > 50 µM | > 50 µM | > 50 µM | > 50 µM | > 50 µM | 1 pM
